pEC50: −log10 of the molar value.
Molecular target: T1, sGC α1/β1 heterodimer stably expressed in CHO-K1 cells (CHO-K1/sGC) (Homo sapiens, UniProt Q02108+Q02153)
T1 construct: expressed in transfected cells
T1 sequence (Q02108 1-690): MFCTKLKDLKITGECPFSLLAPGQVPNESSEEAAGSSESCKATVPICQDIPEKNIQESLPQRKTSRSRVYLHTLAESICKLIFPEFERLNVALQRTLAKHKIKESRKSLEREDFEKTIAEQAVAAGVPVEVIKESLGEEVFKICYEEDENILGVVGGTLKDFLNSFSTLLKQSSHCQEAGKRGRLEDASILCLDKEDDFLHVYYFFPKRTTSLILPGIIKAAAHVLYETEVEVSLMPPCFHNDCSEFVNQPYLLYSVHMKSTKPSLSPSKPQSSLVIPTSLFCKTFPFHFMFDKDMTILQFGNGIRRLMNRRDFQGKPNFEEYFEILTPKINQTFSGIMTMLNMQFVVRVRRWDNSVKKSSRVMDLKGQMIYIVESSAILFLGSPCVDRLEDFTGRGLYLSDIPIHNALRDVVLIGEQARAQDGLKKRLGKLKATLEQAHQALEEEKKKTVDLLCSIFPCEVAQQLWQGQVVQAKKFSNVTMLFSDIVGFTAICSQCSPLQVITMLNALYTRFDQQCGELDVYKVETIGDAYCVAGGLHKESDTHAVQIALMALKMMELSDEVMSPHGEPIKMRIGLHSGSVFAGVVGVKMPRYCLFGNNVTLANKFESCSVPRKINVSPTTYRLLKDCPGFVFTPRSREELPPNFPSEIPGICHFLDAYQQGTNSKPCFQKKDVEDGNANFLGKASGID
T1 sequence (Q02153 1-619): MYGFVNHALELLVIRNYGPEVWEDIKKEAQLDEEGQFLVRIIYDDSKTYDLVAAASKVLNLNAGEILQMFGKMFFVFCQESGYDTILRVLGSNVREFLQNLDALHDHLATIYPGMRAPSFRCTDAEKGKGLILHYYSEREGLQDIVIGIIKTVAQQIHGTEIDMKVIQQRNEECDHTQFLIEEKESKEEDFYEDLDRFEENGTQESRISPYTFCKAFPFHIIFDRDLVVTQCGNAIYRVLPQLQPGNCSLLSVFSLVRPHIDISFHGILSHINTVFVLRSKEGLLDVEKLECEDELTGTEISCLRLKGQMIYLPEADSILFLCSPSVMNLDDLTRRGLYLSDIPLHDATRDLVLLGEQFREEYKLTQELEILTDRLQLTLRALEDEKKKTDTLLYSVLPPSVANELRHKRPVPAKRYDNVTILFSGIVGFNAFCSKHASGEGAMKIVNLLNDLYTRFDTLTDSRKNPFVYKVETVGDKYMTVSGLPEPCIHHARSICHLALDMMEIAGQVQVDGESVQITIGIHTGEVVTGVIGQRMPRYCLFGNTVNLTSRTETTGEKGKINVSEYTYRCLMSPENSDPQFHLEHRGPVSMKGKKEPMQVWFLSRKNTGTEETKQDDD
Assay: Cell-based sGC Functional Assay (CASA Assay)
Conditions: for % Act.: activation as percentage of maximum cGMP production of Compound A (set to 100%); for pEC50: inflection point of cGMP generation in CHO-K1/sGC cells, 4P fit, 1 hr at 37° C., read-out: IP; for Emax: CHO-K1, activation as percentage of maximum cGMP production of Compound A (set to 100%), read-out: % Act.
Text: sGC is a heme-containing enzyme that converts GTP to secondary messenger cGMP. Increases in cGMP levels affect several physiological processes including vasorelaxation through multiple downstream pathways. […] Heme-dependent activators (HDAs) preferentially activate sGC containing a ferrous heme group. To determine the effect of sGC activators on enzyme activity, the CASA assay was developed to monitor the generation of cGMP in a cell line that stably expresses the heterodimeric sGC protein.
A CHO-K1 cell line stably expressing the sGC α1/β1 heterodimer was generated using a standard transfection protocol. CHO-K1 cells were transfected with plasmids pIREShyghsGCα1 and pIRESneo-hsGCβ1 simultaneously using FUGENE reagent. Clones that stably express both subunits were selected with hygromycin and neomycin for ˜2 weeks. Clone #7 was chosen for the assay and was designated CHO-K1/sGC. CHO-K1/sGC cells were maintained in F-K12 medium containing 10% heat-inactivated Fetal Bovine Serum (FBS), 100 μg/mL penicillin/streptomycin, 0.5 mg/mL hygromycin and 0.25 mg/mL G418. The cells were then cryopreserved in LN2. On the day of the assay, cells thawed and resuspended in EBSS Assay Buffer (EAB, Sigma, E3024) supplemented with 5 mM MgCl2, 10 mM HEPES (4-(2-hydroxyethyl)piperazine-1-ethanesulfonic acid) and 0.05% BSA (bovine serum albumin) and cell density was then adjusted to 4×10^5/mL with EAB. IBMX (3-isobutyl-1-methylxanthin, 0.5 mM) was added to inhibit degradation of cGMP. Compounds were diluted from DMSO stock solutions and added to the assay at a final DMSO concentration of 2.5%. Cells were incubated with compounds in the presence and absence of 1 μM of Diethylenetriamine/nitric oxide adduct (DETA-NO; Sigma, 17018) for 1 hr at 37° C. At the end of the incubation period, the reaction was terminated and the cells were lysed with the detection reagents from Cisbio Kits. The level of intracellular cGMP was determined using an HTRF-based assay kit (CisBio, 62GM2PEC), which detects the displacement of a fluorescence labeled cGMP from its specific antibody. The cGMP produced by test compounds was directly compared to the maximum cGMP production (this value was set to equal 100% activation.) of the published sGC-HDA Compound A:
(Example 1 in WO 2010/065275, published Jun. 10, 2010). The test compounds' activity were then expressed as a percentage of Compound A, the standard in every experiment. This percent activation was calculated either in the presence or absence of DETA-NO which was then plotted. IP and maximum fold induction was derived using ADA analysis software for 4P fit.

Compound | % Act. [%] | pEC50 | Emax [%]
4-Amino-5-cyclopropyl-2-(6-((3,3-difluorocyclobutyl)methyl)-1-methyl-1H-pyrazolo[3,4-d]pyrimidin-4-yl)-5-(5-ethyl-1,3,4-oxadiazol-2-yl)-5,7-dihydro-6H-pyrrolo[2,3-d]pyrimidin-6-one [Example 52] | 148 | 7.05 | –
4-Amino-5-ethyl-2-(1-methyl-6-(3,3,4,4,4-pentafluorobutyl)-1H-pyrazolo[3,4-d]pyrimidin-4-yl)-5-(1-propyl-1H-1,2,3-triazol-4-yl)-5,7-dihydro-6H-pyrrolo[2,3-d]pyrimidin-6-one [Example 73] | 117 | 6.38 | –
4-Amino-5-methyl-5-(5-methyl-1,3,4-thiadiazol-2-yl)-2-(1-methyl-6-(3,3,4,4,4-pentafluorobutyl)-1H-pyrazolo[3,4-d]pyrimidin-4-yl)-5,7-dihydro-6H-pyrrolo[2,3-d]pyrimidin-6-one [Example 27] | 89 | 6.68 | –
CCCCc1nc(-c2nc(N)c3c(n2)NC(=O)C3(C)c2ccc(OC)cn2)c2cnn(C)c2n1 (single isomer, unassigned) [Example 36, 4-Amino-2-(6-butyl-1-methyl-1H-pyrazolo[3,4-d]pyrimidin-4-yl)-5-(5-methoxypyridin-2-yl)-5-methyl-5,7-dihydro-6H-pyrrolo[2,3-d]pyrimidin-6-one] | – | 7.37 | 116
[2H]C([2H])([2H])n1ncc2c(-c3nc(N)c4c(n3)NC(=O)C4(C)c3cn(C(C)C)nn3)nc(CCC(F)(F)C(F)(F)F)nc21 (single isomer, unassigned) [Example 57, 4-Amino-5-(1-isopropyl-1H-1,2,3-triazol-4-yl)-5-methyl-2-(1-(methyl-d3)-6-(3,3,4,4,4-pentafluorobutyl)-1H-pyrazolo[3,4-d]pyrimidin-4-yl)-5,7-dihydro-6H-pyrrolo[2,3-d]pyrimidin-6-one] | – | 6.83 | 125
Cn1ncc2c(-c3nc(N)c4c(n3)NC(=O)C4(C)c3c[nH]nn3)nc(CCC(F)(F)C(F)(F)F)nc21 (single isomer, unassigned) [Example 60, 4-Amino-S-methyl-2-(1-methyl-6-(3,3,4,4,4-pentafluorobutyl)-1H-pyrazolo[3,4-d]pyrimidin-4-yl)-5-(1H-1,2,3-triazol-4-yl)-5,7-dihydro-6H-pyrrolo[2,3-d]pyrimidin-6-one] | – | 6.03 | 136
Cn1cc(C2(C3CC3)C(=O)Nc3nc(-c4nc(CCCC(F)(F)F)nc5c4cnn5C)nc(N)c32)nn1 (single isomer, unassigned) [Example 62, 4-Amino-5-cyclopropyl-5-(1-methyl-1H-1,2,3-triazol-4-yl)-2-(1-methyl-6-(4,4,4-trifluorobutyl)-1H-pyrazolo[3,4-d]pyrimidin-4-yl)-5,7-dihydro-6H-pyrrolo[2,3-d]pyrimidin-6-one] | – | 6.10 | 99
CCCn1cc(C2(C)C(=O)Nc3nc(-c4nc(CCC(F)(F)C(F)(F)F)nc5c4cnn5C)nc(N)c32)nn1 (single isomer, unassigned) [Example 71, 4-Amino-5-methyl-2-(1-methyl-6-(3,3,4,4,4-pentafluorobutyl)-1H-pyrazolo[3,4-d]pyrimidin-4-yl)-5-(1-propyl-1H-1,2,3-triazol-4-yl)-5,7-dihydro-6H-pyrrolo[2,3-d]pyrimidin-6-one] | – | 6.66 | 169

The next lines start with the values.

% Act. [%] | pEC50 | Emax [%] | Compound
89 | 6.43 | – | [2H]C([2H])([2H])n1ncc2c(-c3nc(N)c4c(n3)NC(=O)C4(c3nnc(C)o3)C3CC3)nc(CCC(F)(F)C(F)(F)F)nc21 (single isomer, unassigned) [Example 40A, 4-Amino-5-cyclopropyl-5-(5-methyl-1,3,4-oxadiazol-2-yl)-2-(1-(methyl-d3)-6-(3,3,4,4,4-pentafluorobutyl)-1H-pyrazolo[3,4-d]pyrimidin-4-yl)-5,7-dihydro-6H-pyrrolo[2,3-d]pyrimidin-6-one]
68 | 6.53 | – | [2H]C([2H])([2H])n1ncc2c(-c3nc(N)c4c(n3)NC(=O)C4(c3nnc(C)o3)C3CC3)nc(CCC(F)(F)C(F)(F)F)nc21 (single isomer, unassigned) [Example 40B, 4-Amino-5-cyclopropyl-5-(5-methyl-1,3,4-oxadiazol-2-yl)-2-(1-(methyl-d3)-6-(3,3,4,4,4-pentafluorobutyl)-1H-pyrazolo[3,4-d]pyrimidin-4-yl)-5,7-dihydro-6H-pyrrolo[2,3-d]pyrimidin-6-one]
– | 6.15 | 105 | CCC1(c2cn(C)nn2)C(=O)Nc2nc(-c3nc(CCC(F)(F)C(F)(F)F)nc4c3cnn4C)nc(N)c21 (single isomer, unassigned) [Example 58, 4-Amino-5-ethyl-5-(1-methyl-1H-1,2,3-triazol-4-yl)-2-(1-methyl-6-(3,3,4,4,4-pentafluorobutyl)-1H-pyrazolo[3,4-d]pyrimidin-4-yl)-5,7-dihydro-6H-pyrrolo[2,3-d]pyrimidin-6-one]
– | 6.09 | 133 | CCC1(c2cn(C(C)C)nn2)C(=O)Nc2nc(-c3nc(CCC(F)(F)C(F)(F)F)nc4c3cnn4C)nc(N)c21 (single isomer, unassigned) [Example 68, 4-Amino-5-ethyl-5-(1-isopropyl-1H-1,2,3-triazol-4-yl)-2-(1-methyl-6-(3,3,4,4,4-pentafluorobutyl)-1H-pyrazolo[3,4-d]pyrimidin-4-yl)-5,7-dihydro-6H-pyrrolo[2,3-d]pyrimidin-6-one]
– | 6.30 | 121 | CCCn1cc(C2(CC)C(=O)Nc3nc(-c4nc(CCC(F)(F)C(F)(F)F)nc5c4cnn5C)nc(N)c32)nn1 (single isomer, unassigned) [Example 72, 4-Amino-5-ethyl-2-(1-methyl-6-(3,3,4,4,4-pentafluorobutyl)-1H-pyrazolo[3,4-d]pyrimidin-4-yl)-5-(1-propyl-1H-1,2,3-triazol-4-yl)-5,7-dihydro-6H-pyrrolo[2,3-d]pyrimidin-6-one]

— patent US9611278B2 (Merck Sharp & Dohme Corp., priority 2013, dated 2017)
